Series [1] is described as follows: Peptide stability in human serum. It is filed as in vitro ADME. To be noted: for peptide in human serum over time, mean / remaining at 0.08 h, 300 μM / remaining at 0.25 h, 300 μM / remaining at 0.5 h, 300 μM / remaining at 1 h, 300 μM / remaining at 4 h, 300 μM / remaining at 6 h, 300 μM / remaining at 8 h, 300 μM / remaining at 24 h, 300 μM: SD, human serum, mean; for peptide in human serum over time, mean: in % (unit assumed); for remaining at 0.08 h, 300 μM: Time 0.08 (time unit inferred); for remaining at 0.08 h, 300 μM / remaining at 0.25 h, 300 μM / remaining at 0.5 h, 300 μM / remaining at 1 h, 300 μM / remaining at 4 h, 300 μM / remaining at 6 h, 300 μM / remaining at 8 h, 300 μM / remaining at 24 h, 300 μM: read-out: peptide in human serum over time, mean; for remaining at 0.25 h, 300 μM: Time 0.25 (time unit inferred); for remaining at 0.5 h, 300 μM: Time 0.50 (time unit inferred); for remaining at 1 h, 300 μM: Time 1.00 (time unit inferred); for remaining at 4 h, 300 μM: Time 4.00 (time unit inferred); for remaining at 6 h, 300 μM: Time 6.00 (time unit inferred); for remaining at 8 h, 300 μM: Time 8.00 (time unit inferred); for remaining at 24 h, 300 μM: Time 24.00 (time unit inferred); for half-life at 300 μM: human serum (Sigma-Aldrich), 1.5 mM peptide in 20 mM sodium phosphate pH 7.4 diluted 1:9, final 300 μM, 310 K, 24 h, methanol precipitation, HPLC peak area of intact peptide vs t = 0, three independent replicates. As for the experimental part:
Supplementary Figure 2 | Stability in human serum and internalization in human cells of peptides (P3-7)3 and (P3-7)3 Ctrl. a Human serum stability assay of peptides (P3-7)3, (P3-7)3 Ctrl and Angiopep-2 (sequence:
, a positive control for this assay 1), measured at increasing time points by monitoring the area of the HPLC peak corresponding to the intact peptide over the area of the same peak at t = […]
Peptide stability in human serum
1.5 mM solutions of the P(3-7)3, P(3-7)3 Ctrl and Angiopep-2 peptides were prepared as detailed above in 20 mM sodium phosphate, pH 7.4 and diluted in human serum (Sigma-Aldrich, Burlington, MA, USA) (1:9 dilution) to a final concentration of 300 μM. The incubation was performed at 310 K for 24 h, taking aliquots of 50 μL at several time points.
These samples were treated with 400 μL of methanol to precipitate the serum proteins and centrifuged for 30 min at 277 K. The supernatant was filtered and analyzed by HPLC to calculate the percentage of intact peptide in the sample. HPLC chromatograms were obtained on an Agilent 1260 Infinity II system with a PDA detector, with an Agilent Poroshell 120-EC18 (50 x 3 mm x 2.7 μm) column. The flow rate was 1 mL min-1 and acetonitrile (1% TFA) and water (1% TFA) were used as solvents, with 4 minute linear gradients from 5 % to 95 % of acetonitrile thermostated at 313 K. […]

Series [2] deals with T1, RAP74-CTD (Homo sapiens, UniProt P35269).
T1 construct: spanning residues 450-517; His6-MBP (with TEV site) (N, cleaved yes); made in house; host or cells: E. coli Rosetta (DE3)pLysS
T1 sequence (P35269 450-517): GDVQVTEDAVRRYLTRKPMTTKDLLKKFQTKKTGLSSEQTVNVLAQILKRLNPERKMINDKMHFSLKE
The series can be described thus: NMR chemical shift perturbation titration of peptides into 15N RAP74-CTD (KD). The series is classed as binding. To be noted: 298 K, pH 7.4; for KD range in words: NMR CSP titration, RAP74-CTD 50 μM; for Kd: 1H-15N BEST-TROSY CSP titration, 15N RAP74-CTD 50 μM, read-out: NMR-derived KD. The procedure: Recombinant samples with ^15N isotope enrichment of the C-terminal domain of subunit 1 of the general transcription regulator TFIIF (RAP74-CTD), spanning residues 450-517, were obtained as described previously. A codon-optimized synthetic gene cloned in a pDONR221 vector was obtained from GeneArt (Thermo Fisher Scientific, Waltham, MA, USA) and subcloned into a pDEST-His6MBP vector obtained from Addgene. Rosetta (DE3)pLysS competent cells (Novagen, Merck KGaA, Darmstadt, Germany) were grown in MOPS medium with ^15NH4Cl as the only nitrogen source (310 K, induction at OD600 = 0.7, 1 mM IPTG, harvesting 3 h after induction). Soluble fractions of cell lysates from sonication in lysis buffer (50 mM Tris-HCl, 1 M NaCl, 10 mM imidazole, pH 8.0) were purified by IMAC, and fractions containing the His6MBP-TEV-RAP74-CTD fusion were dialyzed at 277 K overnight against cleavage buffer (50 mM Tris-HCl, 200 mM NaCl, 0.5 mM EDTA, pH 8.0) in the presence of TEV protease (50 μg/mL). A second IMAC step was performed and the flow-through containing the RAP-CTD was loaded onto a HiTrap SP HP cation exchange column followed by a size exclusion chromatography step on a Superdex 75 GL 10/300 column equilibrated with NMR buffer (20 mM sodium phosphate, 0.1% trifluoroacetic acid, pH 7.4), both mounted in an Äkta Purifier System (GE Healthcare, Chicago, IL, USA). The sample was concentrated to 100 μM using an Amicon Ultra 15 mL centrifugal filter (Merck KGaA, Darmstadt, Germany).
Before the experiment, both the protein and the peptide were dialyzed (277 K, two dialysis steps) in the same preparation of NMR buffer (20 mM sodium phosphate, 0.1% trifluoroacetic acid, pH 7.4), using a Pur-A-Lyzer (Sigma-Aldrich, Burlington, MA, USA) and a Micro Float-A-Lyzer (Spectrum Laboratories, San Francisco, CA, USA) respectively. The chemical shift assignment of RAP74-CTD was reported previously (BMRB code 27288). Averaged ^1H and ^15N chemical shift perturbations (CSPs) were calculated as:2 ΔδAV=(Δδ1H)^2+1/5Δδ15N^2
Dissociation constants, KD, and averaged CSP amplitude, Δδmax, for δ, δstpl, γ and γstpl peptide binding to RAP74-CTD were obtained by a global fitting (nonlinear regression) of the 10% peaks with the largest averaged CSPs to the following single-site binding model (1:1 stoichiometry):3 Δδ=Δδmax([Protein]+[Peptide]+KD)−([Protein]+[Peptide]+KD)^2−4[Protein][Peptide]/2[Protein]

[3] abbreviates: Time 0.00 (time unit not given).

Like-named read-outs stand apart in the source and are kept apart here. Starred links: 1 amine or outer side, 2 acyl side, 3 side chain; linkers in the order of their positions; H or OH if unused. Positions of bridges follow the written chain, without caps; N, C: chain ends. Non-standard residues stand in square brackets, D forms with d. Residues, ends and D or L forms follow the SMILES beside them. No end group written: not given here. ξ: configuration not given here. ξαMeNle(6-ylidene) = CC(CCCC=[*:3])(N[*:1])C(=O)[*:2]

Usually half-life stands for the time in which the quantity being followed falls by half. High values mean slow decline, low ones rapid decline. As a reminder, the Kd is the constant that tells how readily two partners part at equilibrium.

Take `C[C@@H](O)[C@H](N)C(=O)N[C@@H](Cc1ccccc1)C(=O)N[C@@H](Cc1ccccc1)C(=O)N[C@@H](Cc1ccc(O)cc1)C(=O)NCC(=O)NCC(=O)N[C@@H](CO)C(=O)N[C@@H](CCCNC(=N)N)C(=O)NCC(=O)N[C@@H](CCCCN)C(=O)N[C@@H](CCCNC(=N)N)C(=O)N[C@@H](CC(N)=O)C(=O)N[C@@H](CC(N)=O)C(=O)N[C@@H](Cc1ccccc1)C(=O)N[C@@H](CCCCN)C(=O)N[C@H](C(=O)N[C@@H](CCC(=O)O)C(=O)N[C@@H](CCC(=O)O)C(=O)N[C@@H](Cc1ccc(O)cc1)C(=O)O)[C@@H](C)O` [Angiopep-2, reference compound]: in series [1] (setting [3]), the “peptide in human serum over time, mean” value came to 100.01. In addition, in series [1], the remaining at 0.08 h, 300 μM was 52%; the remaining at 0.25 h, 300 μM came to 72.6%; the remaining at 0.5 h, 300 μM came to 32.2%; the remaining at 1 h, 300 μM worked out at 73.3%. Besides, in series [1], the remaining at 4 h, 300 μM worked out at 24.9%; the remaining at 6 h, 300 μM is 16.7%; the remaining at 8 h, 300 μM amounted to 18.3%; the remaining at 24 h, 300 μM worked out at 22.5%.

As to `CC(C)C[C@@H]1NC(=O)[C@H](CCC(N)=O)NC(=O)C(C)(NC(=O)[C@H](Cc2c[nH]c3ccccc23)NC(=O)[C@H](CO)NC(=O)[C@H](C)NC(=O)[C@H](CO)NC(=O)[C@H](C)NC(=O)CNC(=O)[C@@H]2CCCN2C(=O)[C@H](CCCCN)NC(=O)[C@@H](N)CCCCN)CCCC=CCCCC(C)(C(=O)N[C@@H](CCC(=O)O)C(=O)N[C@@H](CCC(=O)O)C(=O)N[C@@H](CCC(N)=O)C(=O)N[C@@H](C)C(=O)N[C@@H](C)C(=O)N[C@@H](CCC(N)=O)C(=O)N[C@@H](C)C(=O)N[C@@H](C)C(=O)N[C@@H](CCCCN)C(=O)N[C@@H](CCCCN)C(=O)O)NC(=O)[C@H](Cc2ccccc2)NC1=O` (stereo partly drawn) [γStpl], the “KD range in words” value in series [2] is listed as “mid-micromolar range”.

As to `CC(C)C[C@@H]1NC(=O)[C@H](CCC(N)=O)NC(=O)C(C)(NC(=O)[C@H](CCC(=O)O)NC(=O)[C@H](CCC(N)=O)NC(=O)[C@H](C)NC(=O)[C@H](C)NC(=O)[C@H](C)NC(=O)[C@H](C)NC(=O)[C@H](CO)NC(=O)[C@H](C)NC(=O)CNC(=O)[C@@H]2CCCN2C(=O)[C@H](CCCCN)NC(=O)[C@@H](N)CCCCN)CCCC=CCCCC(C)(C(=O)N[C@@H](CC(C)C)C(=O)N[C@@H](C)C(=O)N[C@@H](CCC(N)=O)C(=O)N[C@@H](CCC(=O)O)C(=O)N[C@@H](CC(C)C)C(=O)N[C@@H](CCC(N)=O)C(=O)N[C@@H](C)C(=O)N[C@@H](C)C(=O)N[C@@H](CCC(N)=O)C(=O)N[C@@H](C)C(=O)N[C@@H](C)C(=O)N[C@@H](CCCCN)C(=O)N[C@@H](CCCCN)C(=O)N[C@@H](Cc2ccc(O)cc2)C(=O)O)NC(=O)[C@H](C)NC1=O` (stereo partly drawn) [δStpl] (H-KKPGASAAAAQE[ξαMeNle(6-ylidene)]QLA[ξαMeNle(6-ylidene)]LAQELQAAQAAKKY-OH; staple 13-17; N-terminus and C-terminus assumed), the “KD range in words” value in series [2] is “millimolar range”.

On to “KKPGASAAAAQAAQAAQAAQAAQAAQAAKKY [(P3-7)3 Ctrl]”, for which the “peptide in human serum over time, mean” value in series [1] (setting [3]) is listed as 100.26. Besides, in series [1], the remaining at 0.08 h, 300 μM was 96.4%; the remaining at 0.25 h, 300 μM is 97.3%; the remaining at 0.5 h, 300 μM came out at 114%; the remaining at 1 h, 300 μM came out at 115%. Besides, in series [1], the remaining at 4 h, 300 μM is 94.5%; the remaining at 6 h, 300 μM was 115%; the remaining at 8 h, 300 μM came out at 98.4%; the remaining at 24 h, 300 μM worked out at 110%. In addition, the half-life at 300 μM in series [1] was > 24 h.

On to KKPGASAAAAQEAQLAQLAQELQAAQAAKKY [δctrl], for which the Kd in series [2] (lower bound) was > 1000 µM.

With KKPGASASWAQLFQEEQAAQAAKK [γCtrl], the Kd in series [2] (lower bound) was > 1000 µM.

Take “KKPGASLAALQALQALQALQALQAAQAAKKY [(P3-7)3]”: in series [1], the remaining at 0.08 h, 300 μM amounted to 113%; the remaining at 0.25 h, 300 μM was 120%; the remaining at 6 h, 300 μM was 103%; the remaining at 8 h, 300 μM was determined as 86.3%. Further, the half-life at 300 μM in series [1] is > 24 h. In series [1] (Time 0.50 (time unit not given)), the “peptide in human serum over time, mean” value is listed as 137.50. Also, the “peptide in human serum over time, mean” value in series [1] (Time 1.00 (time unit not given)) amounted to 122.97. In series [1] (Time 4.00 (time unit not given)), the “peptide in human serum over time, mean” value is reported as 139.36. In addition, the “peptide in human serum over time, mean” value in series [1] (Time 24.00 (time unit not given)) was 128.28. Moreover, the Kd in series [2] (lower bound) is > 1000 µM.

With KKPGASLAALQELQLLQLLQELQAAQAAKKY [δ], the Kd in series [2] (20 mM sodium phosphate, 0.1% TFA, global fit of 10% peaks with largest CSPs, 1:1 model, error by Monte-Carlo) was 131 ± 20 µM.

As for KKPGASLSWLQLFQEEQAAQAAKK [γ], the “KD range in words” value in series [2] is given as “mid-micromolar range”.

With “SAAASSSWHTLFTAEEGQLYG [WHTLF, reference compound]”, the Kd in series [2] (lower bound) was > 1000 µM.
